For assay [1], the target named is T1, YB-1 human recombinant protein (Homo sapiens, UniProt P67809).
T1 construct: (51–139 aa, 35 kDa including GST tag, from Abnova Corporation, Taiwan); purchased Abnova Corporation, Taiwan
Briefly: SPR (Biacore) full kinetics, RSK analytes over immobilized YB-1. The note with it: without BSA; analyte 100-0 nM; 25 °C; read-out: KD for binding to immobilized YB-1. How it is done:
(§1) Binding experiments were performed using a Biacore T-200 instrument (Uppsala, Sweden) at 25 °C. 60 response units (RU) of the YB-1 human recombinant protein with GST-tag at N-terminal (51–139 aa, 35 kDa including GST tag, from Abnova Corporation, Taiwan) were directly immobilized on the EDC/NHS activated flow cell2 of the CM5 chip (GE certified) in water. The unoccupied sites were blocked with 1 M ethanol amine. The analytes RPS6KA1 (RSK1, 88.5 kDa) and RPS6KA3 (RSK2, 86.3 kDa) recombinant human proteins [full length and HIS-tag] (Life Technologies, Italy) were flown over the chip at variable concentrations in 10 mM sodium acetate buffer (pH 5.0), with flow rate of 5ul/min, at a single analyte concentration. Binding of analyte to the immobilized protein was monitored in real time to obtain on (ka) and off (kd) rates. The equilibrium constant (KD) was calculated from the observed ka and kd or by steady state kinetics as for the small molecules. Stocks were prepared in 100% DMSO, and further dilutions were made in assay buffer containing 10 mM HEPES buffer (pH 7.4), 150 mM NaCl, 3 mM EDTA, 0.05% P20 (polyoxyethylenesorbitan) and 0.1% BSA. Full kinetics analysis was performed at using analyte concentrations 50 nM (or 100 nM without BSA) to 0, run with serial dilutions, 50, 25, 12.5, 6.25, 3.125, 0 nM, and a flow rate of 30 ul/min. […]
For orientation: In SPR one partner is held on a chip, and binding of the other changes the refractive index at the surface.

Assay [2] addresses T2, RSK1 (Homo sapiens, UniProt Q15418). The assay can be described thus: biochemical. How it is done: In vitro kinase activity profiling of RSK isoforms was performed at Reaction Biology Corporation (Malvern, PA). Briefly, the specific kinase/substrate pair alongwith required cofactors was prepared in reaction buffer.
Target sequence in this assay (Q15418 whole entry, canonical isoform): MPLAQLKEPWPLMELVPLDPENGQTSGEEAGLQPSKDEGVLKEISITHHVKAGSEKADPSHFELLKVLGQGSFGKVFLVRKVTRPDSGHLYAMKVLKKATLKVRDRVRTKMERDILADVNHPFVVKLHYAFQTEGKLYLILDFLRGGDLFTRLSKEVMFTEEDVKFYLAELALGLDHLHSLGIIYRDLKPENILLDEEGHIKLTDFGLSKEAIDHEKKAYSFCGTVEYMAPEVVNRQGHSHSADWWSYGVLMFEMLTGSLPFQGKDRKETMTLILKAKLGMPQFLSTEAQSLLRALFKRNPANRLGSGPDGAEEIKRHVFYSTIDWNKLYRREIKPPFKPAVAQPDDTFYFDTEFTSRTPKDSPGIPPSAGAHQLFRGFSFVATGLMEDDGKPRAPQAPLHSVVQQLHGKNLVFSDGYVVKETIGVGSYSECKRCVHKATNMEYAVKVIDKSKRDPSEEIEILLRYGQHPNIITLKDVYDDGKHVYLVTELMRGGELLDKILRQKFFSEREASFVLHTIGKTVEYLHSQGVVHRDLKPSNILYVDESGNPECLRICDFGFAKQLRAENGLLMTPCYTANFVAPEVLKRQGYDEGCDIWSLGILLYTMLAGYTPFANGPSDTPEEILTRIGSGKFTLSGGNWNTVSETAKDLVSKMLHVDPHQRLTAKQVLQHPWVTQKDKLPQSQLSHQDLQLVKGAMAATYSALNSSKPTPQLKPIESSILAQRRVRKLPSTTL
In assay [3] the target is T3, RSK2 binding to YB-1 (Homo sapiens, UniProt P51812).
T3 construct: recombinant human proteins [full length and HIS-tag]; (Life Technologies, Italy); His; purchased Life Technologies, Italy (RSK2); Abnova Corporation, Taiwan (YB-1)
T3 sequence (P51812 whole entry): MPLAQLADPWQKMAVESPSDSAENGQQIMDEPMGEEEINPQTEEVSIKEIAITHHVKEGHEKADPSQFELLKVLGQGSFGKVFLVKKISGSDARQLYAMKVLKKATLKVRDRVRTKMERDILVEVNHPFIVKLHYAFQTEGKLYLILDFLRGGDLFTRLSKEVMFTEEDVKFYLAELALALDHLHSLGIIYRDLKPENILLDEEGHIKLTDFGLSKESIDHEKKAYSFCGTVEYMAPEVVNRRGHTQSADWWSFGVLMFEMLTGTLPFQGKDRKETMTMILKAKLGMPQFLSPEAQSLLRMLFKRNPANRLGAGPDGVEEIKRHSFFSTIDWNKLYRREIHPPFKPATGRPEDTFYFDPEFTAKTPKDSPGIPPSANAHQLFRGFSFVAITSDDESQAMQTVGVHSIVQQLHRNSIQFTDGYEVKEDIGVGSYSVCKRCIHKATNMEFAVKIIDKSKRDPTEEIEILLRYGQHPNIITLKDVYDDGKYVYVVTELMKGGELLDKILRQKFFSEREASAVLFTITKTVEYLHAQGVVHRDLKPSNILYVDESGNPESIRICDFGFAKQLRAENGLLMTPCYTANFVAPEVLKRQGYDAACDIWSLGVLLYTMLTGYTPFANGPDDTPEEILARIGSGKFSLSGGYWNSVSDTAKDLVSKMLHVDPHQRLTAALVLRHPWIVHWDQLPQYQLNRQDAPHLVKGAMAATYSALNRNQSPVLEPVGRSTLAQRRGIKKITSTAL
The assay can be described thus: SPR competition assay, RSK2 pre-incubated with fisetin over immobilized YB-1. The note with it: RSK2 100 nM pre-incubated with fisetin 1 and 10 µM. The protocol: as §1

The target in assay [4] is ERK1 (Homo sapiens, UniProt P27361). Briefly: Radiometric in vitro kinase activity assay. The assay is classed as biochemical.
ERK1, sequence (P27361 whole entry): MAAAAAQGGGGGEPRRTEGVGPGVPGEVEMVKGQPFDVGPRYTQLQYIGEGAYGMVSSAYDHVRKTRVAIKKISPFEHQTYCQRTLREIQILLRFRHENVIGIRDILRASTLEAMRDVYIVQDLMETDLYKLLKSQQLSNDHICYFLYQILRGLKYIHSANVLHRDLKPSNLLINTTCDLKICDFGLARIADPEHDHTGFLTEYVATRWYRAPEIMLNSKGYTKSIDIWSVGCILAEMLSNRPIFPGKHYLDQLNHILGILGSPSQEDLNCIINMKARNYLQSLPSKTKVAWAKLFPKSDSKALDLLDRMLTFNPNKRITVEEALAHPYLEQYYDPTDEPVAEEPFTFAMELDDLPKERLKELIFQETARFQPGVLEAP
The target in assay [5] is ERK2 (Homo sapiens, UniProt P28482). The assay can be described thus: Radiometric in vitro kinase activity assay. The assay is classed as biochemical.
ERK2, sequence (P28482 whole entry): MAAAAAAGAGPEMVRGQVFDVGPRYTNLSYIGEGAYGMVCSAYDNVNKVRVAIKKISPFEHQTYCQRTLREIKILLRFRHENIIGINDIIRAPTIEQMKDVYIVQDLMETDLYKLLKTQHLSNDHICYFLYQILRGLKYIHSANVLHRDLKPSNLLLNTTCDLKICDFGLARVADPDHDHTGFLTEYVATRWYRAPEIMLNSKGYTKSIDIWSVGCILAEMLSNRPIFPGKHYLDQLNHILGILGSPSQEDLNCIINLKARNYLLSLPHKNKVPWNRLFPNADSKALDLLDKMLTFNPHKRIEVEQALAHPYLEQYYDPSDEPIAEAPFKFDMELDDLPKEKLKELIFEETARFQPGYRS
The test system of assay [6] is 451Lu melanoma cells. Briefly: 451Lu melanoma xenograft in athymic nude mice. The note with it: day 35; fisetin 1 mg/animal i.p. thrice weekly; vemurafenib 2 mg/animal oral gavage 5 days/week; control 1179.7 mm^3. The assay is classed as in vivo. The protocol: Athymic (nu/nu) female nude mice (Harlan, Madison, WI), 4–5 weeks old, were housed under pathogen-free conditions, in the University of Wisconsin Animal Resource Facility, with a 12-hour light/12-hour dark schedule and fed an autoclaved diet ad libitum. All animal experiments were approved by and carried out according to Institutional Animal Care and Use Committee guidelines, University of Wisconsin-Madison, protocol # M005212. Briefly, 1 × 10^6 451Lu cells were injected s/c into each flank of 18 mice randomly divided into 3 groups. The first group received intraperitoneal injection of fisetin 40 mg/kg b.wt. (1 mg/animal) thrice weekly, the second group received vemurafenib by oral gavage 80 mg/kg b.wt. (2 mg/animal) dissolved in DMSO, 5 days/week, while the third group served as the DMSO treated control group. Mice weight and tumor volumes were recorded twice weekly. The animals were sacrificed when tumors reached a volume of 1200 mm^3 in the control group. Samples were collected and stored at −80 °C until further analysis.

Assay [7] has as its system YB-1. Briefly: Western blot/immunocytochemistry of YB-1 in melanoma cells. The assay is classed as cell-based, human. The text has this:
WM35 and A375 cells were obtained from ATCC (Manassas, VA), NCI/ADR-Res cells from NCI (Developmental Therapeutics Program, Frederick, MD) while 451Lu cells were provided by Dr. Meenhard Herlyn (Wistar Institute, PA). Authentication report was provided by ATCC and NCI for post-freeze viability, growth properties, morphology, mycoplasma contamination, species determination (cytochrome c oxidase I assay and STR analysis), sterility test and human pathogenic virus testing. Cells were frozen in aliquots in liquid nitrogen and cultured within six months. 451Lu cells were authenticated upon receipt using STR analysis and all cell lines are regularly tested for mycoplasma contamination using MycoAlert Mycoplasma Detection Kit from Lonza (Basel, Switzerland). WM35, A375 cells were cultured in DMEM, NCI/ADR-Res in RPMI and 451Lu in MEM with 10% FBS and 1% penicillin-streptomycin, at 37 °C with 5% CO2 in a humid environment. […]
For immunohistochemistry, sections from melanoma constructs, fixed in 10% formalin were deparaffinized and rehydrated in xylene and a graded series of ethanol and blocked in 2% goat serum/PBS for 30 min. After incubation with specific primary antibody overnight and biotinylated secondary antibody for 1 h, slides were counterstained with hematoxylin and immunoreactive complexes were detected using 3,3′-diaminobenzidene (Dako Corp., CA). […]

The subject of assay [8] is NCI/ADR-Res cells. The assay can be described thus: MTT cell viability. The assay is classed as cell-based, human. The note with it: NCI/ADR-Res ovarian tumor cells. The protocol: Cells seeded in 24-well plates were treated at 70% confluence with/without fisetin and/or vemurafenib for 24 hours. Cell viability was determined by MTT assay as described.
Assay [9] concerns RSK. Briefly: Western blot of RSK phosphorylation in A375 cells. The assay is classed as cell-based, human. The note with it: fisetin 60 µM:24 h, FR180204 10 µM. An excerpt:
WM35 and A375 cells were obtained from ATCC (Manassas, VA), NCI/ADR-Res cells from NCI (Developmental Therapeutics Program, Frederick, MD) while 451Lu cells were provided by Dr. Meenhard Herlyn (Wistar Institute, PA). Authentication report was provided by ATCC and NCI for post-freeze viability, growth properties, morphology, mycoplasma contamination, species determination (cytochrome c oxidase I assay and STR analysis), sterility test and human pathogenic virus testing. Cells were frozen in aliquots in liquid nitrogen and cultured within six months. 451Lu cells were authenticated upon receipt using STR analysis and all cell lines are regularly tested for mycoplasma contamination using MycoAlert Mycoplasma Detection Kit from Lonza (Basel, Switzerland). WM35, A375 cells were cultured in DMEM, NCI/ADR-Res in RPMI and 451Lu in MEM with 10% FBS and 1% penicillin-streptomycin, at 37 °C with 5% CO2 in a humid environment. After treatment of cells with/without fisetin and/or inhibitors, whole cell lysates were prepared and western blot analysis was performed as described elsewhere.
For orientation: A western blot detects proteins with antibodies after separation by electrophoresis.

The target of assay [10] is T4, RSK2 (Homo sapiens, UniProt P51812). Briefly: Radiometric in vitro kinase activity assay (Reaction Biology). The assay is classed as biochemical. The note with it: 10-dose, 3-fold serial dilution from 100 μM; 30 μM ATP; read-out: IC50 (M), kinase activity inhibition RSK2. More on the design: purchased Reaction Biology Corporation (Malvern, PA), contract assay.
Target sequence in this assay (P51812 whole entry): as the sequence (P51812 whole entry) above
Assay [11] addresses T5, RSK3 (Homo sapiens, UniProt Q15349). The assay is described as above. Particulars: 10-dose, 3-fold serial dilution from 100 μM; 30 μM ATP; read-out: IC50 (M), kinase activity inhibition RSK3. More on the design: purchased Reaction Biology Corporation (Malvern, PA), contract assay. The assay is classed as biochemical.
Target sequence in this assay (Q15349 whole entry): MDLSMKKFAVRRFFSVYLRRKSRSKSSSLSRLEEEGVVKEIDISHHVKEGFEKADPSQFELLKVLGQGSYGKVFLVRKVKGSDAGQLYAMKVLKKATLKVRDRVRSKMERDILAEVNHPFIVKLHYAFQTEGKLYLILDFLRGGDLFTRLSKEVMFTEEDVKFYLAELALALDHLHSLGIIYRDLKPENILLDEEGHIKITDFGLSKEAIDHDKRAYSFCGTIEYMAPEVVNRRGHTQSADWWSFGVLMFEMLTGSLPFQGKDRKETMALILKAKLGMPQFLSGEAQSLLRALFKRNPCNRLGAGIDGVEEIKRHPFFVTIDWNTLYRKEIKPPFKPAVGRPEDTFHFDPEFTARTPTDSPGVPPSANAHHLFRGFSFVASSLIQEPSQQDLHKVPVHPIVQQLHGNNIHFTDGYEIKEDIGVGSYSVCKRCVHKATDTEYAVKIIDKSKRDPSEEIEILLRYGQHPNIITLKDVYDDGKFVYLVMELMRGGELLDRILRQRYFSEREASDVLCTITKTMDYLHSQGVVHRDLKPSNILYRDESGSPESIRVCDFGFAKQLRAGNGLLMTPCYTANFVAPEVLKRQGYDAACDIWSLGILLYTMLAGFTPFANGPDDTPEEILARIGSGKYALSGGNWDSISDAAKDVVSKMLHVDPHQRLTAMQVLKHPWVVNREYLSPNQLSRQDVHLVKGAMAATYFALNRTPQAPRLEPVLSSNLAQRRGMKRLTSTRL
For assay [12], the target named is T4, RSK2. The assay can be described thus: KINOMEscan competition binding assay. Also on record: purchased KINOMEscan screening platform (San Diego, CA), contract assay. How it is done:
(§2) The KINOMEscan screening platform (San Diego, CA) was employed to quantitatively measure interactions between fisetin and RSK isoforms. Binding constants (Kds) were calculated by measuring the amount of kinase captured on solid support as a function of the test compound concentration, using the Hill equation. The Hill Slope was set to −1. Curves were fitted using a non-linear least square fit with the Levenberg-Marquardt algorithm.

Assay [13] has as its target T2, RSK1. The assay can be described thus: KINOMEscan competition binding assay. More on the design: RSK1 (Kinase Domain 1-N-terminal): Average Kd (nM): 8100; RSK1 (Kinase Domain 2-C-terminal): Average Kd (nM): 2500; purchased KINOMEscan screening platform (San Diego, CA), contract assay. Particulars: duplicate, top concentration 100 µM. The protocol: as §2
For assay [14], the target named is T5, RSK3. The assay can be described thus: KINOMEscan competition binding assay. More on the design: RSK3 (Kinase Domain 1-N-terminal): Average Kd (nM): 5200; RSK3 (Kinase Domain 2-C-terminal): Average Kd (nM): 5800; purchased KINOMEscan screening platform (San Diego, CA), contract assay. Particulars: duplicate, top concentration 100 µM. How it is done: as §2

Where two headings read alike, the source gives them in different places.

T1 sequence (P67809 51-139): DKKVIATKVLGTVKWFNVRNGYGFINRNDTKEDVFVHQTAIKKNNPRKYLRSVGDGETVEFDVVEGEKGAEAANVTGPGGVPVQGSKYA

One may read the Kd as a measure of binding affinity in units of concentration. In the case of “RSK2: recombinant human protein RPS6KA3, full length, HIS-tag, 86.3 kDa; SPR analyte”, the Kd in assay [1] was 0.534 µM.

In general, IC50 refers to the midpoint of a concentration-inhibition curve. Consider `O=c1c(O)c(-c2ccc(O)c(O)c2)oc2cc(O)ccc12` [Fisetin, fisetin], for which the IC50 is 3.79 µM in assay [2]; 8.5 µM in assay [4]; 9.88 µM in assay [5]; 2.78e-06 M in assay [10]; 8.91e-07 M in assay [11]. In addition, the “effect on binding of RSK2 to YB-1” value in assay [3] is listed as “promote its binding to YB-1”. For the same compound, in assay [6], the average tumor volume is given as 789.3 mm^3. The “YB-1 phosphorylation and total protein levels” value in [7] (A375 and 451Lu cells, 0–80 µM, 24 h) is “dose-dependent decrease in YB-1 phosphorylation”. In [8], the cell viability entry is recorded as “reduced viability”. Moreover, the “RSK phosphorylation at threonine359/serine363” value in assay [9] is on record as “significant decrease”. Also, the Kd in assay [12] (C-terminal kinase domain, duplicate, top concentration 100 µM, read-out: Average Kd, RSK2 (Kinase Domain 2-C-terminal)) is 8.4 µM; in assay [12] (N-terminal kinase domain, duplicate, top concentration 100 µM, read-out: Average Kd, RSK2 (Kinase Domain 1-N-terminal)) it was 0.05 µM; in assay [12] (single replicate curve, C-terminal kinase domain, read-out: Kd, RSK2(Kin.Dom.2-C-terminal), Replicate ID = 1), 8.1 µM; in assay [13] (C-terminal kinase domain, read-out: Average Kd, RSK1 (Kinase Domain 2-C-terminal)), 2.5 µM; in assay [13] (N-terminal kinase domain, read-out: Average Kd, RSK1 (Kinase Domain 1-N-terminal)), 8.1 µM; in assay [14] (C-terminal kinase domain, read-out: Average Kd, RSK3 (Kinase Domain 2-C-terminal)) it was 5.8 µM. Further, in [14] (N-terminal kinase domain, read-out: Average Kd, RSK3 (Kinase Domain 1-N-terminal)), the Kd was 5.2 µM.

On to `CCCS(=O)(=O)Nc1ccc(F)c(C(=O)c2c[nH]c3ncc(-c4ccc(Cl)cc4)cc23)c1F` [vemurafenib, reference compound], for which the average tumor volume in [6] is 641.7 mm^3.

Turning to `CC(C)CCN1c2nc(Nc3cc(F)c(O)c(F)c3)ncc2N(C)C(=O)C1C` (stereo not drawn) [BI-D1870, reference compound], the YB-1 expression result in assay [7] (A375 cells, in comparison to fisetin (60 μM:24 h)) was “modest effect”.

Turning to `Nc1[nH]nc2nnc(-c3c(-c4ccccc4)nn4ccccc34)cc12` [FR180204, reference compound], in assay [9], the “RSK phosphorylation at threonine359/serine363” value is recorded as “significant decrease”.

Source of the values: PMC6200766, “Fisetin targets YB-1/RSK axis independent of its effect on ERK signaling: insights from in vitro and in vivo melanoma models” (Scientific Reports, 2018).
